Data on 26 compounds can be found in patent publication US20240327393A1 (SIRONAX LTD., priority 2021, published 2024).

The test system of the test is HT-1080 (ATCC, CCL-121) cells. The test can be described thus: HT-1080 cell viability assay with ferroptosis inducer RSL3 (Cell Titer-Glo). The note with it: Homo sapiens, HT-1080 cells treated with RSL3, 3-fold, 10-point dilution, 1.1 μM highest concentration, read-out: EC50 (nM), ferroptosis inhibitory activity. The format is cell-based. A digest of the protocol:
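EC50 was derived by sigmoidal dose-response regression of CellTiter-Glo luminescence viability, expressed relative to untreated wells. Compounds were tested in a ten-point, threefold dilution series (highest 1.1 μM) in the presence of the ferroptosis inducer RSL3. HT-1080 cells had been seeded at 6000 per well and grown overnight first.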
On the technique in general: ATP-based viability assays read luminescence as a measure of living cells.

Like-named read-outs stand apart in the source and are kept apart here.

For the compound `Cc1nc(N2CCC(C(F)(F)F)CC2)ccc1Nc1ccc2c(c1)n(C)c(=O)n2C` [Compound 373, 1,3-dimethyl-5-((2-methyl-6-(4-(trifluoromethyl)piperidin-1-yl)pyridin-3-yl)amino)-1,3-dihydro-2H-benzo[d]imidazol-2-one], the EC50 (Table 2) lay in the range of 0.1 to 100 nM.

As for `Cc1c(N2CCC(C)CC2)ccc(Nc2ccc3c(c2)n(C)c(=O)n3C)c1F` [Compound 263, 5-((2-fluoro-3-methyl-4-(4-methylpiperidin-1-yl)phenyl)amino)-1,3-dimethyl-1,3-dihydro-2H-benzo[d]imidazol-2-one], the EC50 (Table 2) lay within 0.1 to 100 nM.

As for `Cc1cc(N2CC(F)(F)C(F)(F)C2)ccc1Nc1ccc2c(c1)OCC(=O)N2` [Compound 636, 7-((2-methyl-4-(3,3,4,4-tetrafluoropyrrolidin-1-yl)phenyl)amino)-2H-benzo[b][1,4]oxazin-3(4H)-on], the concentration for a half-maximal effect (EC50) (Table 3) was in the range of 0.1 to 100 nM.

On to `COc1cc(N2CCC(C(F)(F)F)CC2)ncc1Nc1ccc2c(c1)n(C)c(=O)n2C` [Compound 380, 5-((4-methoxy-6-(4-(trifluoromethyl)piperidin-1-yl)pyridin-3-yl)amino)-1,3-dimethyl-1,3-dihydro-2H-benzo[d]imidazol-2-one], for which the EC50 (Table 2) lay in the range of 0.1 to 100 nM.

Turning to `Cc1cc(N2CCC(F)(F)CC2)ccc1Nc1ccc2c(c1)OCCC(=O)N2` [Compound 629, 8-((4-(4,4-difluoropiperidin-1-yl)-2-methylphenyl)amino)-2,3-dihydrobenzo[b][1,4]oxazepin-4(5H)-one], where the note is “Table 3”, the EC50 lay within 0.1 to 100 nM.

In the case of `Fc1cc(Nc2ccc3c(c2)CN(CC2CC2)C3)cnc1N1CCCCC1` [Compound 196, 2-(cyclopropylmethyl)-N-(5-fluoro-6-(piperidin-1-yl)pyridin-3-yl) isoindolin-5-amine], the concentration for a half-maximal effect (EC50) (Table 2) was 0.1 to 100 nM.

On to `C#Cc1ccc(Nc2ccc3c(c2)n(C)c(=O)n3C)cc1` [Compound 290, 5-((4-ethynylphenyl)amino)-1,3-dimethyl-1,3-dihydro-2H-benzo[d]imidazol-2-one], for which the EC50 (Table 2) is 0.1 to 100 nM.

With `COC1(C(F)(F)F)CCN(c2ccc(Nc3ccc4c(c3)OCC(=O)N4)cc2)CC1` [Compound 162, 7-((4-(4-methoxy-4-(trifluoromethyl)piperidin-1-yl)phenyl)amino)-2H-benzo[b][1,4]oxazin-3(4H)-one], the EC50 (Table 2) was 0.1 to 100 nM.

For the compound `Cc1cc(N2CC(C(F)F)C2)ccc1Nc1ccc2c(c1)OCC(=O)N2` [Compound 655, 7-[4-[3-(difluoromethyl)azetidin-1-yl]-2-methyl-anilino]-4H-1,4-benzoxazin-3-one], the EC50 (Table 3) was in the range of 0.1 to 100 nM.

`CN(C)c1cc(Nc2ccc3c(c2)n(C)c(=O)n3C)cc(N(C)C)c1` [Compound 277, 5-((3,5-bis(dimethylamino)phenyl)amino)-1,3-dimethyl-1,3-dihydro-2H-benzo[d]imidazol-2-one]: the EC50 (Table 2) lay within 0.1 to 100 nM.

Take `COc1cc(Nc2ccc3c(c2)OCC(=O)N3C)ccc1N1CCC(C(F)(F)F)CC1` [Compound 91, 7-((3-methoxy-4-(4-(trifluoromethyl)piperidin-1-yl)phenyl)amino)-4-methyl-2H-benzo[b][1,4]oxazin-3(4H)-one]: the EC50 (Table 2) lay within 0.1 to 100 nM.

Take `CN1CCN(CC(=O)N2CCc3cc(Nc4ccc(N5CCC(C(F)(F)F)CC5)c(F)c4)ccc3C2)CC1` [Compound 108, 1-(6-((3-fluoro-4-(4-(trifluoromethyl)piperidin-1-yl)phenyl)amino)-3,4-dihydroisoquinolin-2(1H)-yl)-2-(4-methylpiperazin-1-yl)ethan-1-one]: under “Table 2”, the EC50 was in the range of 0.1 to 100 nM.

With `FC(F)(F)C1CCN(c2ccc(Nc3ccc4ncoc4c3)cc2)CC1` [Compound 360, N-(4-(4-(trifluoromethyl)piperidin-1-yl)phenyl)benzo[d]oxazol-6-amine], the EC50 (Table 2) fell in the range of 0.1 to 100 nM.

Consider `Cc1c(Nc2ccc3c(c2)OCC(=O)N3C)ccc(N2CCC(C(F)(F)F)CC2)c1F` [Compound 63, 7-((3-fluoro-2-methyl-4-(4-(trifluoromethyl)piperidin-1-yl)phenyl)amino)-4-methyl-2H-benzo[b][1,4]oxazin-3(4H)-one], for which the concentration for a half-maximal effect (EC50) (Table 2) is 0.1 to 100 nM.

As for `Cc1cc(N2C[C@@H](C)O[C@@H](C)C2)ccc1Nc1ccc2cn(C)nc2c1` [Compound 637, N-(4-((2S,6R)-2,6-dimethylmorpholino)-2-methylphenyl)-2-methyl-2H-indazol-6-amine], the concentration giving a half-maximal response (EC50) (Table 3) was in the range of 0.1 to 100 nM.

With `CC1CN(c2ccc(Nc3ccc4c(c3)oc(=O)n4C)cc2)CC(C)O1` (centres unmarked) [Compound 317, 6-((4-(2,6-dimethylmorpholino)phenyl)amino)-3-methylbenzo[d]oxazol-2(3H)-one], the EC50 (Table 2) lay in the range of 0.1 to 100 nM.

As to `Cn1c(=O)n(C)c2cc(Nc3ccc(N4CCC(F)CC4)cc3)ccc21` [Compound 299, 5-((4-(4-fluoropiperidin-1-yl)phenyl)amino)-1,3-dimethyl-1,3-dihydro-2H-benzo[d]imidazol-2-one], where the note is “Table 2”, the EC50 was in the range of 0.1 to 100 nM.

For `CC1CCN(c2ncc(Nc3ccc4c(c3)n(C)c(=O)n4C)cn2)CC1` [Compound 376, 1,3-dimethyl-5-((2-(4-methylpiperidin-1-yl)pyrimidin-5-yl)amino)-1,3-dihydro-2H-benzo[d]imidazol-2-one], the concentration for a half-maximal effect (EC50) (Table 2) lay in the range of 0.1 to 100 nM.

Take `CN1CC(=O)N(C)c2ccc(Nc3ccc(N4CCC(C(F)(F)F)CC4)cc3)cc21` [Compound 109, 1,4-dimethyl-6-((4-(4-(trifluoromethyl)piperidin-1-yl)phenyl)amino)-3,4-dihydroquinoxalin-2(H)-one]: the EC50 (Table 2) was in the range of 0.1 to 100 nM.

With `Cc1cc(N2CC(C)OC(C)C2)c(F)cc1Nc1ccc2c(c1)OCC(=O)N2C` (centres unmarked) [Compound 61, 7-((4-(2,6-dimethylmorpholino)-5-fluoro-2-methylphenyl)amino)-4-methyl-2H-benzo[b][1,4]oxazin-3(4H)-one], the EC50 (Table 2) was in the range of 0.1 to 100 nM.

Consider `CC1CCN(c2ccc(Nc3ccc4oc(=O)n(C)c4c3)cc2)CC1` [Compound 286, 3-methyl-5-((4-(4-methylpiperidin-1-yl)phenyl)amino)benzo[d]oxazol-2(3H)-one], for which the concentration for a half-maximal effect (EC50) (Table 2) is 0.1 to 100 nM.

On to `CC(C)(C)C(=O)NN1C(=O)COc2cc(Nc3ccc(N4CCC(C(F)(F)F)CC4)cc3)ccc21` [Compound 600, N-(3-oxo-7-((4-(4-(trifluoromethyl)piperidin-1-yl)phenyl)amino)-2,3-dihydro-4H-benzo[b][1,4]oxazin-4-yl)pivalamide], for which, under “Table 3”, the EC50 was 0.1 to 100 nM.

In the case of `CC1CCN(c2ccc(Nc3ccc4c(c3)n(C)c(=O)n4C)cc2Cl)CC1` [Compound 298, 5-((3-chloro-4-(4-methylpiperidin-1-yl)phenyl)amino)-1,3-dimethyl-1,3-dihydro-2H-benzo[d]imidazol-2-one], the EC50 (Table 2) lay within 0.1 to 100 nM.

Turning to `Cc1cc(N2CCC(C(F)(F)F)CC2)ccc1Nc1ccc2[nH]c(N)nc2c1` [Compound 526, N5-(2-methyl-4-(4-(trifluoromethyl)piperidin-1-yl)phenyl)-1H-benzo[d]imidazole-2,5-diamine], for the setting “Table 3”, the EC50 lay within 0.1 to 100 nM.

For the compound `Cc1cc(Nc2ccc3c(c2)OCC(=O)N3)cnc1N1C[C@H](C)O[C@@H](C)C1` (stereo in doubt) [Compound 152, 7-((6-(2,6-dimethylmorpholino)-5-methylpyridin-3-yl)amino)-2H-benzo[b][1,4]oxazin-3(4H)-one], the half-maximal effective concentration (EC50) (Table 2) fell in the range of 100 to 1000 nM.

On to `CNCCCn1c(=O)oc2ccc(Nc3ccc(N4CCC(C(F)(F)F)CC4)cc3)cc21` [Compound 418, 3-(3-(methylamino)propyl)-5-((4-(4-(trifluoromethyl)piperidin-1-yl)phenyl)amino)benzo[d]oxazol-2(3H)-one], for which, under “Table 2”, the EC50 lay within 0.1 to 100 nM.

As a reminder, the EC50 is the concentration needed to bring the measured effect to its halfway point.
